By Ki is commonly meant a dissociation constant, usually derived from enzyme kinetics or from competition with a known ligand.

The subject of experiment [1] is ec308 SHV-5. The experiment in a line: Tigemonam potentiation (MPC@4), strain ec308 SHV-5. The format is cell-based.
For experiment [2], the system named is KP1009 CTX-M-15. The experiment in a line: Tigemonam potentiation (MPC@4), strain KP1009 CTX-M-15.
The subject of experiment [3] is EC1010 CMY-6. Kind of experiment: Tigemonam potentiation (MPC@4), strain EC1010 CMY-6. The format is cell-based.
Experiment [4] has as its system ECL1002. Kind of experiment: Tigemonam potentiation (MPC@4), strain ECL1002. In kind it is cell-based.
Experiment [5] has as its system KP1010 SHV-12. The experiment in a line: Tigemonam potentiation (MPC@4), strain KP1010 SHV-12.
The subject of experiment [6] is ec302 TEM-10. The experiment in a line: Tigemonam potentiation (MPC@4), strain ec302 TEM-10. In kind it is cell-based.
In experiment [7] the test system is KP1005 CTX-M-14. The experiment in a line: Tigemonam potentiation (MPC@4), strain KP1005 CTX-M-14.
The next experiment has as its system KP1086 OXA-48. The experiment in a line: Biapenem potentiation (MPC@1), strain KP1086 OXA-48. In kind it is cell-based. The conditions noted are these: minimum BLI concentration inhibiting growth with biapenem 1 μg/mL; tested up to 40 μg/mL. The protocol:
(§1) Biapenem was present in the test medium at 1 μg/mL. […] Table 3 summarizes the BLI potency of biapenem potentiation (MPC@1) for two strains overexpressing class A (KPC) and class D (OXA-48) carbapenemases. Biapenem MIC for each strain is also shown.

Experiment [8] has as its system ec302 TEM-10. The experiment in a line: Aztreonam potentiation (MPC@4), strain ec302 TEM-10. The conditions noted are these: minimum BLI concentration inhibiting growth with aztreonam 4 μg/mL; tested up to 40 μg/mL.
The next experiment concerns AB1054 OXA-23. The experiment in a line: Meropenem potentiation (MPC@8), strain AB1054 OXA-23. In kind it is cell-based, Acinetobacter baumannii. The conditions noted are these: minimum BLI concentration inhibiting growth with meropenem 8 μg/mL; tested up to 20 μg/mL.
Experiment [9] deals with KP1010 SHV-12. The experiment in a line: Aztreonam potentiation (MPC@4), strain KP1010 SHV-12. The conditions noted are these: minimum BLI concentration inhibiting growth with aztreonam 4 μg/mL; tested up to 40 μg/mL.
Experiment [10] deals with KP1005 CTX-M-14. The experiment in a line: Aztreonam potentiation (MPC@4), strain KP1005 CTX-M-14. The conditions noted are these: minimum BLI concentration inhibiting growth with aztreonam 4 μg/mL; tested up to 40 μg/mL.
Experiment [11] has as its system KP1004 KPC-2. Kind of experiment: Aztreonam potentiation (MPC@4), strain KP1004 KPC-2. The note with it: minimum BLI concentration inhibiting growth with aztreonam 4 μg/mL; tested up to 40 μg/mL.
In experiment [12] the target is T1, purified class A, C and D enzymes (β-lactamases) (UniProt P0AD64, L31Q/G234S/E235K, species not given).
T1 construct: Ki (SHV-12, NCF), uM; other: purified SHV-12; nitrocefin (NCF) as reporter substrate
T1 sequence (P0AD64 1-286 L31Q/G234S/E235K): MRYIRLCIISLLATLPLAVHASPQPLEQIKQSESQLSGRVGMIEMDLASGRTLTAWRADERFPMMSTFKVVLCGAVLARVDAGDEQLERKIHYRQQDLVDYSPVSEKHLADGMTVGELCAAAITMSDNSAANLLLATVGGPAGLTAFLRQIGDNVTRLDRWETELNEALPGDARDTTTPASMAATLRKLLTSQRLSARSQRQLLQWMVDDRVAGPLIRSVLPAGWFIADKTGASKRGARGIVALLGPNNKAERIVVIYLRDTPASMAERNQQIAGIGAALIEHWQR
Kind of experiment: biochemical. The format is biochemical. The note with it: purified SHV-12; nitrocefin (NCF) as reporter substrate; read-out: Ki (SHV-12, NCF).

Experiment [13] deals with purified class A, C and D enzymes (β-lactamases) (Klebsiella pneumoniae, UniProt Q6XEC0). The experiment in a line: biochemical. In kind it is biochemical. The conditions noted are these: purified OXA-48; nitrocefin (NCF) as reporter substrate.
Experiment [14] has as its target purified class A, C and D enzymes (β-lactamases) (Klebsiella pneumoniae, UniProt Q9F663). Kind of experiment: biochemical. The note with it: purified KPC-2; nitrocefin (NCF) as reporter substrate. The format is biochemical.
The target of experiment [15] is T2, purified class A, C and D enzymes (β-lactamases) (Acinetobacter baumannii, UniProt Q9L4P2).
T2 construct: rows headed: Ki (OXA-23, NCF), uM; other: purified OXA-23; nitrocefin (NCF) as reporter substrate
The experiment in a line: biochemical. The format is biochemical. The note with it: purified OXA-23; nitrocefin (NCF) as reporter substrate.

The target of experiment [16] is purified class A, C and D enzymes (β-lactamases) (UniProt P62593, R162S/E237K, species not given). The experiment in a line: biochemical. The conditions noted are these: purified TEM-10; nitrocefin (NCF) as reporter substrate. In kind it is biochemical.
Experiment [17] concerns the target purified class A, C and D enzymes (β-lactamases) (Escherichia coli, UniProt Q9L5C7). Kind of experiment: biochemical. The note with it: purified CTX-M-14; nitrocefin (NCF) as reporter substrate. The format is biochemical.
In experiment [18] the test system is KP1009 CTX-M-15. The experiment in a line: Aztreonam potentiation (MPC@4), strain KP1009 CTX-M-15. The conditions noted are these: minimum BLI concentration inhibiting growth with aztreonam 4 μg/mL; tested up to 40 μg/mL.
A further experiment deals with AB1053 OXA-72. Kind of experiment: Meropenem potentiation (MPC@8), strain AB1053 OXA-72. In kind it is cell-based, Acinetobacter baumannii. The note with it: minimum BLI concentration inhibiting growth with meropenem 8 μg/mL; tested up to 20 μg/mL.
Experiment [19] has as its system KP1004 KPC-2. Kind of experiment: Biapenem potentiation (MPC@1), strain KP1004 KPC-2. The format is cell-based. The note with it: minimum BLI concentration inhibiting growth with biapenem 1 μg/mL; tested up to 40 μg/mL. The procedure:
as §1

Experiment [20] deals with ec308 SHV-5. Kind of experiment: Aztreonam potentiation (MPC@4), strain ec308 SHV-5. The note with it: minimum BLI concentration inhibiting growth with aztreonam 4 μg/mL; tested up to 40 μg/mL.
Experiment [21] relates to ECL1002. Kind of experiment: Aztreonam potentiation (MPC@4), strain ECL1002. The note with it: minimum BLI concentration inhibiting growth with aztreonam 4 μg/mL; tested up to 40 μg/mL.
Experiment [22] has as its system EC1010 CMY-6. Kind of experiment: Aztreonam potentiation (MPC@4), strain EC1010 CMY-6. The conditions noted are these: minimum BLI concentration inhibiting growth with aztreonam 4 μg/mL; tested up to 40 μg/mL.
Setting [23] is: minimum BLI concentration inhibiting growth with tigemonam 4 μg/mL, tested up to 40 μg/mL.

T2 sequence (Q9L4P2 whole entry): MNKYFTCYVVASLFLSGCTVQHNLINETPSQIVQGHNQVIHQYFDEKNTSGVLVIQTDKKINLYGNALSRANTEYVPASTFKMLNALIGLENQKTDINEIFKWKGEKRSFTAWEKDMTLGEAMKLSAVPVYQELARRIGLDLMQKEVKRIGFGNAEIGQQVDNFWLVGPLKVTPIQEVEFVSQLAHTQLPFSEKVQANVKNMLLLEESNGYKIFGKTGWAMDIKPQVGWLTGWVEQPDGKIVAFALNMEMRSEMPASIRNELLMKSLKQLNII
Chain of purified class A, C and D enzymes (β-lactamases) (Escherichia coli, UniProt Q9L5C7) (Q9L5C7 entry or part of it): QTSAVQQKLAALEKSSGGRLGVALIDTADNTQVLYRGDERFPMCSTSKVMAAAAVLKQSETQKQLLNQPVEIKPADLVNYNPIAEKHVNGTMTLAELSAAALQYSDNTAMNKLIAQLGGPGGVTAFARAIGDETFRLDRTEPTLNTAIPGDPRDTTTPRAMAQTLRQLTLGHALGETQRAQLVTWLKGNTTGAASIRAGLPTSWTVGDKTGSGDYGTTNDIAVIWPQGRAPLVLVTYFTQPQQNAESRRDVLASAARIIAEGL

For `CC1(C)[C@H](NC(=O)/C(=N\OCC(=O)O)c2csc(N)n2)C(=O)N1OS(=O)(=O)O` [Tigemonam, reference compound], the “Tigemonam MIC” value is above 64 µg/mL in the experiment with ec308 SHV-5 [1] (strain ec308 SHV-5, tigemonam alone); above 64 µg/mL with KP1009 CTX-M-15 [2]; 16 µg/mL in the experiment on EC1010 CMY-6 [3] (strain EC1010 CMY-6, tigemonam alone); 32 µg/mL with ECL1002 [4] (strain ECL1002, tigemonam alone); above 64 µg/mL in the experiment on KP1010 SHV-12 [5] (strain KP1010 SHV-12, tigemonam alone); above 64 µg/mL with ec302 TEM-10 [6] (strain ec302 TEM-10, tigemonam alone). Besides, the “Tigemonam MIC” value with KP1005 CTX-M-14 [7] is above 64 µg/mL.
For the molecule “Disodium; 4,4-dihydroxy-8-(1H-triazol-4-ylmethoxy)-5-oxa-4-boranuidabicyclo[4.4.0]deca-1(6),7,9-triene-7-carboxylate [Compound 24]”, the “BPM MPC1 OXA-48 KP1086” value in the experiment with KP1086 OXA-48 is recorded as “X (X = MPC@1 ≤ 5 μg/mL)”. For the same molecule, the “AZT MPC4 TEM-10 ec302” value with ec302 TEM-10 [8] is reported as “X (X = MPC@4 ≤ 5 μg/mL)”. Further, the “TIG MPC4 SHV-5 ec308” value in the experiment on ec308 SHV-5 [1] (setting [23]) is on record as “X (X = MPC@4 ≤ 5 μg/mL)”. Further, in the experiment with AB1054 OXA-23, the “MPM MPC8 AB1054 OXA-23” value is recorded as “X (X = MPC@1 ≤ 5 μg/mL)”. The “AZT MPC4 SHV-12 KP1010” value in the experiment on KP1010 SHV-12 [9] is given as “X (X = MPC@4 ≤ 5 μg/mL)”. In the experiment on KP1005 CTX-M-14 [10], the “AZT MPC4 CTX-M-14 KP1005” value is on record as “X (X = MPC@4 ≤ 5 μg/mL)”. Also, the “AZT MPC4 KPC-2 KP1004” value in the experiment on KP1004 KPC-2 [11] is recorded as “X (X = MPC@4 ≤ 5 μg/mL)”. For the same molecule, the “TIG MPC4 CTX-M-15 KP1009” value in the experiment on KP1009 CTX-M-15 [2] (setting [23]) is recorded as “X (X = MPC@4 ≤ 5 μg/mL)”. Moreover, the “TIG MPC4 CMY-6 EC1010” value with EC1010 CMY-6 [3] (setting [23]) is reported as “X (X = MPC@4 ≤ 5 μg/mL)”. Further, the inhibition constant (Ki) in experiment [12], in [13], in experiment [14], in experiment [15], in [16] and in [17] was below 0.1 µM throughout. Besides, the “TIG MPC4 ECL1002” value in the experiment on ECL1002 [4] (setting [23]) was “X (X = MPC@4 ≤ 5 μg/mL)”. Further, the “TIG MPC4 SHV-12 KP1010” value in the experiment with KP1010 SHV-12 [5] (setting [23]) is “X (X = MPC@4 ≤ 5 μg/mL)”. Further, the “AZT MPC4 CTX-M-15 KP1009” value in the experiment on KP1009 CTX-M-15 [18] is “X (X = MPC@4 ≤ 5 μg/mL)”. In addition, the “MPM MPC8 AB1053 OXA-72” value in the experiment on AB1053 OXA-72 is given as “X (X = MPC@1 ≤ 5 μg/mL)”. The “BPM MPC1 KP1004 KPC-2” value in the experiment with KP1004 KPC-2 [19] is listed as “X (X = MPC@1 ≤ 5 μg/mL)”. Also, the “TIG MPC4 TEM-10 ec302” value with ec302 TEM-10 [6] (setting [23]) is “X (X = MPC@4 ≤ 5 μg/mL)”. The “AZT MPC4 SHV-5 ec308” value in the experiment with ec308 SHV-5 [20] is “X (X = MPC@4 ≤ 5 μg/mL)”. Further, the “TIG MPC4 CTX-M-14 KP1005” value in the experiment with KP1005 CTX-M-14 [7] (setting [23]) is given as “Z (Z = MPC@4 > 20 μg/mL)”. The “AZT MPC4 ECL1002” value with ECL1002 [21] is recorded as “X (X = MPC@4 ≤ 5 μg/mL)”. Moreover, the “AZT MPC4 CMY-6 EC1010” value in the experiment on EC1010 CMY-6 [22] was “X (X = MPC@4 ≤ 5 μg/mL)”.

These data come from patent US10618918B2, “Substituted boronic acids as antimicrobials” (priority 2015, dated 2020).
